From ChEMBL document CHEMBL1909046, “DrugMatrix in vitro pharmacology data”

How the values were obtained:
[1] = biological target: T1, C-C chemokine receptor type 4 (Homo sapiens, UniProt P51679); format: cell membranes, Membrane; details: chem-1; note: in other assays of this panel Not Active means under 50% inhibition at 10 µM
T1 sequence (P51679 whole entry): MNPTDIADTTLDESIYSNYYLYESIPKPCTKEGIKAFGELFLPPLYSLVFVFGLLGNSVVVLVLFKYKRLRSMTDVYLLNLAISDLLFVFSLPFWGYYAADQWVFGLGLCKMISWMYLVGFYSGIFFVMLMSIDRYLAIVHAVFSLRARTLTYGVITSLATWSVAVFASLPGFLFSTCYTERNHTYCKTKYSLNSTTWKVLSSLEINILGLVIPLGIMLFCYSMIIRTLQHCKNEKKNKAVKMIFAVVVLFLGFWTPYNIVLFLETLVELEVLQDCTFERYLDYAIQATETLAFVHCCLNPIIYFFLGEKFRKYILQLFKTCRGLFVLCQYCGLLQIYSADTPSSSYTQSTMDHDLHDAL

[2] = DRUGMATRIX: Platelet-Derived Growth Factor (PDGF) radioligand binding (ligand: [125I] PDGF); format: cell-based; details: nih3t3; Not Active = under 50% inhibition at 10 µM
[3] = DRUGMATRIX: Nicotinic Acetylcholine radioligand binding (ligand: [125I] Epibatidine); format: cell membranes, Membrane; details: imr-32; Not Active = under 50% inhibition at 10 µM
Cannabinoid receptor 1 = Cannabinoid receptor 1 (Homo sapiens, UniProt P21554); format: cell membranes, Membrane; details: chem-1; note: in other assays of this panel Not Active means under 50% inhibition at 10 µM
[4] = biological target: Mitogen-activated protein kinase 14 (Homo sapiens, UniProt Q16539); set-up: species or system Escherichia coli;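 note: inhibition of p38alpha enzyme activity in a biochemical kinase assay, with myelin basic protein serving as substrate; in other assays of this panel Not Active means under 50% inhibition at 10 µM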
Vasopressin V1a receptor = Vasopressin V1a receptor (Homo sapiens, UniProt P37288); format: cell membranes, Membrane; details: hek293; note: in other assays of this panel Not Active means under 50% inhibition at 10 µM
[5] = biological target: C-C chemokine receptor type 5 (Homo sapiens, UniProt P51681); format: cell membranes, Membrane; details: hek293; note: in other assays of this panel Not Active means under 50% inhibition at 10 µM
[6] = biological target: T2, C-X-C chemokine receptor type 1 (Homo sapiens, UniProt P25024); note: in other assays of this panel Not Active means under 50% inhibition at 10 µM
T2 sequence (P25024 whole entry): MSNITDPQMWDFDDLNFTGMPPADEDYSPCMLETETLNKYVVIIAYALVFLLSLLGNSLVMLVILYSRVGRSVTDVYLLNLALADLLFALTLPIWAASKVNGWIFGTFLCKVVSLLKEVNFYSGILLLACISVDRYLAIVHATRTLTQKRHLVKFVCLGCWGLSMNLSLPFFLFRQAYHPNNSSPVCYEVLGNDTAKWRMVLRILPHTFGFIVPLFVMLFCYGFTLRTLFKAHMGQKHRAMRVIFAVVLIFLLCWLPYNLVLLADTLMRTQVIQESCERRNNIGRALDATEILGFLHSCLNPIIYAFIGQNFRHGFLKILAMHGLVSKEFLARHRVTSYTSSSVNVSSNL

Mitogen-activated protein kinase 14, sequence (Q16539 whole entry): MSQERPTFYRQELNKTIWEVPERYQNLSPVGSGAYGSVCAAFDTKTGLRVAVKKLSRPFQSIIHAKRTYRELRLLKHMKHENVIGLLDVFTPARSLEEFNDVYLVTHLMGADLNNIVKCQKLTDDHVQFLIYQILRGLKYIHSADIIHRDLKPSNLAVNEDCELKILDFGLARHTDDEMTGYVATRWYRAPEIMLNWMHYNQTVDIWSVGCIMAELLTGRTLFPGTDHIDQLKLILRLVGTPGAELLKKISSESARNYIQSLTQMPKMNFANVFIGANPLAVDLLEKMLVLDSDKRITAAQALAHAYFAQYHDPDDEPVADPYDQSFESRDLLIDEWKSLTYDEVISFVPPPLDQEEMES
Vasopressin V1a receptor, sequence (P37288 whole entry): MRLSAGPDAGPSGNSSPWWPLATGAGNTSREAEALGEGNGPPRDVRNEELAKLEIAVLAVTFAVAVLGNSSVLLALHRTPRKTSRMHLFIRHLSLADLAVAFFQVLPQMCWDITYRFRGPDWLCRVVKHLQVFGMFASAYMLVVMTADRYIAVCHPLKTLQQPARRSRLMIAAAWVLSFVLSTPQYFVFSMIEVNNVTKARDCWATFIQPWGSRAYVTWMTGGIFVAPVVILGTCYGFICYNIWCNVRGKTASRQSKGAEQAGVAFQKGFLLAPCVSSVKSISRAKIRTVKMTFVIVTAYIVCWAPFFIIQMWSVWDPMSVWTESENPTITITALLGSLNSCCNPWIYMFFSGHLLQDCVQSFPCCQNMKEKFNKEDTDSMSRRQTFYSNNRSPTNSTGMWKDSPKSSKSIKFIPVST
Cannabinoid receptor 1, sequence (P21554 whole entry): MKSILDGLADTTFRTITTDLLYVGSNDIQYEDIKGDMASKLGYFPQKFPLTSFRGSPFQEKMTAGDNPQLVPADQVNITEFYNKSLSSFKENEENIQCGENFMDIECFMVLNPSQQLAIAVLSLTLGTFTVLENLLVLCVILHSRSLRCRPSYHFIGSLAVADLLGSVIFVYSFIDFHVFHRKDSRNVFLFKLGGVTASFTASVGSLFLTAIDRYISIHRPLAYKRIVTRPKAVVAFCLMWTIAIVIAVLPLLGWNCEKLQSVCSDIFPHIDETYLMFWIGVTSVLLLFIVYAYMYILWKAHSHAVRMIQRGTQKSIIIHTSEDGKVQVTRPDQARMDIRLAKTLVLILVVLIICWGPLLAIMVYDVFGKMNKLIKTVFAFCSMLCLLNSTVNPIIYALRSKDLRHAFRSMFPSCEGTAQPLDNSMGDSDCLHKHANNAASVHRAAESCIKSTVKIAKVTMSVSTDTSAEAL
C-C chemokine receptor type 5, sequence (P51681 whole entry): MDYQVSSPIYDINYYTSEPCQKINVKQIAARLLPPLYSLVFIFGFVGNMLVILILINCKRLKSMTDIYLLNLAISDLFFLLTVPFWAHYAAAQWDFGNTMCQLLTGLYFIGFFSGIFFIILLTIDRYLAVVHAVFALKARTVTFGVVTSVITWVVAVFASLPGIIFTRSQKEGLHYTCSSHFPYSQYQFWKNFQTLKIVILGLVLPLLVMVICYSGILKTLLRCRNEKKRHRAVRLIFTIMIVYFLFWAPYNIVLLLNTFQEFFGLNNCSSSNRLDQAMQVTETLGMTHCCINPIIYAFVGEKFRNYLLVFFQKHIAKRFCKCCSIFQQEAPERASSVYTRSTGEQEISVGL

CC(=O)O[C@]1(C(C)=O)CC[C@H]2[C@@H]3C=C(C)C4=CC(=O)CC[C@]4(C)[C@H]3CC[C@@]21C [MEGESTROL ACETATE]
Not Active: IC50 [1] | IC50 [2] | Ki [2] | IC50 [3] | Ki [3] | IC50 (Cannabinoid receptor 1) | IC50 [4] | IC50 (Vasopressin V1a receptor) | IC50 [5] | IC50 [6]

CC(C)C[C@H]1C(=O)N2CCC[C@H]2[C@]2(O)O[C@](NC(=O)[C@@H]3C=C4c5cccc6[nH]c(Br)c(c56)C[C@H]4N(C)C3)(C(C)C)C(=O)N12 [BROMOCRIPTINE]
Not Active: IC50 [1] | IC50 [2] | Ki [2] | IC50 [3] | Ki [3] | IC50 (Cannabinoid receptor 1) | IC50 [4] | IC50 (Vasopressin V1a receptor) | IC50 [5] | IC50 [6]

CC(=O)O[C@]1(C(C)=O)CC[C@H]2[C@@H]3C=C(Cl)C4=CC(=O)[C@@H]5C[C@@H]5[C@]4(C)[C@H]3CC[C@@]21C [CYPROTERONE ACETATE]
Not Active: IC50 [1] | IC50 [2] | Ki [2] | IC50 [3] | Ki [3] | IC50 (Cannabinoid receptor 1) | IC50 [4] | IC50 (Vasopressin V1a receptor) | IC50 [5] | IC50 [6]

CC(C)(Oc1ccc(C2CC2(Cl)Cl)cc1)C(=O)O (stereo unspecified) [CIPROFIBRATE]
Not Active: IC50 [1] | IC50 [2] | Ki [2] | IC50 [3] | Ki [3] | IC50 (Cannabinoid receptor 1) | IC50 [4] | IC50 (Vasopressin V1a receptor) | IC50 [5] | IC50 [6]

CC(C)(C)c1ccc(S(=O)(=O)/C=C/C#N)cc1 [BAY-11-7085]
Not Active: IC50 [1] | IC50 [2] | Ki [2] | IC50 [3] | Ki [3] | IC50 (Cannabinoid receptor 1) | IC50 [4] | IC50 (Vasopressin V1a receptor) | IC50 [5] | IC50 [6]

Cc1cccc(Nc2ccccc2C(=O)O)c1C [MEFENAMIC ACID]
Not Active: IC50 [1] | IC50 [2] | Ki [2] | IC50 [3] | Ki [3] | IC50 (Cannabinoid receptor 1) | IC50 [4] | IC50 (Vasopressin V1a receptor) | IC50 [5] | IC50 [6]

NC[C@@H]1O[C@H](O[C@H]2[C@@H](O)[C@H](O[C@@H]3[C@@H](O)[C@H](N)C[C@H](N)[C@H]3O[C@H]3O[C@H](CN)[C@@H](O)[C@H](O)[C@H]3N)O[C@@H]2CO)[C@H](N)[C@@H](O)[C@@H]1O [FRAMYCETIN]
Not Active: IC50 [1] | IC50 [2] | Ki [2] | IC50 [3] | Ki [3] | IC50 (Cannabinoid receptor 1) | IC50 [4] | IC50 (Vasopressin V1a receptor) | IC50 [5] | IC50 [6]

O=C(O)c1cccnc1 [NIACIN]
Not Active: IC50 [1] | IC50 [2] | Ki [2] | IC50 [3] | Ki [3] | IC50 (Cannabinoid receptor 1) | IC50 [4] | IC50 (Vasopressin V1a receptor) | IC50 [5] | IC50 [6]

CC[C@]1(O)CC[C@H]2[C@@H]3CCC4=CCCC[C@@H]4[C@H]3CC[C@@]21C
Not Active: IC50 [1] | IC50 [2] | Ki [2] | IC50 [3] | Ki [3] | IC50 (Cannabinoid receptor 1) | IC50 [4] | IC50 (Vasopressin V1a receptor) | IC50 [5] | IC50 [6]

COc1cc(CNC(=O)CCCC/C=C/C(C)C)ccc1O [CAPSAICIN]
Not Active: IC50 [1] | IC50 [2] | Ki [2] | IC50 [3] | Ki [3] | IC50 (Cannabinoid receptor 1) | IC50 [4] | IC50 (Vasopressin V1a receptor) | IC50 [5] | IC50 [6]

CN(C(=O)CCCOc1ccc2[nH]c(=O)ccc2c1)C1CCCCC1 [CILOSTAMIDE]
Not Active: IC50 [1] | IC50 [2] | Ki [2] | IC50 [3] | Ki [3] | IC50 (Cannabinoid receptor 1) | IC50 [4] | IC50 (Vasopressin V1a receptor) | IC50 [5] | IC50 [6]

CC(=O)OCC(CCn1cnc2cnc(N)nc21)COC(C)=O [FAMCICLOVIR]
Not Active: IC50 [1] | IC50 [2] | Ki [2] | IC50 [3] | Ki [3] | IC50 (Cannabinoid receptor 1) | IC50 [4] | IC50 (Vasopressin V1a receptor) | IC50 [5] | IC50 [6]

OCCN1CCN(CCCN2c3ccccc3Sc3ccc(Cl)cc32)CC1 [PERPHENAZINE]
Not Active: IC50 [1] | IC50 [2] | Ki [2] | IC50 [3] | Ki [3] | IC50 (Cannabinoid receptor 1) | IC50 [4] | IC50 (Vasopressin V1a receptor) | IC50 [5] | IC50 [6]

COC(=O)c1ccccc1O [METHYL SALICYLATE]
Not Active: IC50 [1] | IC50 [2] | Ki [2] | IC50 [3] | Ki [3] | IC50 (Cannabinoid receptor 1) | IC50 [4] | IC50 (Vasopressin V1a receptor) | IC50 [5] | IC50 [6]

C[C@H]([C@](O)(Cn1cncn1)c1ccc(F)cc1F)S(C)(=O)=O [GENACONAZOLE]
Not Active: IC50 [1] | IC50 [2] | Ki [2] | IC50 [3] | Ki [3] | IC50 (Cannabinoid receptor 1) | IC50 [4] | IC50 (Vasopressin V1a receptor) | IC50 [5] | IC50 [6]

Clc1cc2c(cc1Cl)Oc1cc(Cl)c(Cl)cc1O2 [2,3,7,8-TETRACHLORODIBENZO-P-DIOXIN]
Not Active: IC50 [1] | IC50 [2] | Ki [2] | IC50 [3] | Ki [3] | IC50 (Cannabinoid receptor 1) | IC50 [4] | IC50 (Vasopressin V1a receptor) | IC50 [5] | IC50 [6]

Nn1nnc2ccccc21
Not Active: IC50 [1] | IC50 [2] | Ki [2] | IC50 [3] | Ki [3] | IC50 (Cannabinoid receptor 1) | IC50 [4] | IC50 (Vasopressin V1a receptor) | IC50 [5] | IC50 [6]

COc1ccccc1OCC(O)COC(N)=O (stereo unspecified) [METHOCARBAMOL]
Not Active: IC50 [1] | IC50 [2] | Ki [2] | IC50 [3] | Ki [3] | IC50 (Cannabinoid receptor 1) | IC50 [4] | IC50 (Vasopressin V1a receptor) | IC50 [5] | IC50 [6]

CC(C(=O)O)c1ccc(-c2ccccc2)c(F)c1 (stereo unspecified) [FLURBIPROFEN]
Not Active: IC50 [1] | IC50 [2] | Ki [2] | IC50 [3] | Ki [3] | IC50 (Cannabinoid receptor 1) | IC50 [4] | IC50 (Vasopressin V1a receptor) | IC50 [5] | IC50 [6]

Cc1c(F)c(N2CCNC(C)C2)cc2c1c(=O)c(C(=O)O)cn2C1CC1 (stereo unspecified) [GREPAFLOXACIN]
Not Active: IC50 [1] | IC50 [2] | Ki [2] | IC50 [3] | Ki [3] | IC50 (Cannabinoid receptor 1) | IC50 [4] | IC50 (Vasopressin V1a receptor) | IC50 [5] | IC50 [6]

Oc1ccccc1O [CATECHOL]
Not Active: IC50 [1] | IC50 [2] | Ki [2] | IC50 [3] | Ki [3] | IC50 (Cannabinoid receptor 1) | IC50 [4] | IC50 (Vasopressin V1a receptor) | IC50 [5] | IC50 [6]

O=P1(N(CCCl)CCCl)NCCCO1 (stereo unspecified) [CYCLOPHOSPHAMIDE ANHYDROUS]
Not Active: IC50 [1] | IC50 [2] | Ki [2] | IC50 [3] | Ki [3] | IC50 (Cannabinoid receptor 1) | IC50 [4] | IC50 (Vasopressin V1a receptor) | IC50 [5] | IC50 [6]

INSULIN HUMAN
Not Active: IC50 [1] | Ki [1] | IC50 [2] | Ki [2] | IC50 [3] | Ki [3] | IC50 (Cannabinoid receptor 1) | Ki (Cannabinoid receptor 1) | IC50 [4] | Ki [4] | IC50 (Vasopressin V1a receptor) | Ki (Vasopressin V1a receptor) | IC50 [5] | Ki [5] | IC50 [6] | Ki [6]

CS(=O)(=O)OCCCCOS(C)(=O)=O [BUSULFAN]
Not Active: IC50 [1] | IC50 [2] | Ki [2] | IC50 [3] | Ki [3] | IC50 (Cannabinoid receptor 1) | IC50 [4] | IC50 (Vasopressin V1a receptor) | IC50 [5] | IC50 [6]

CC(C)(CO)C(O)C(=O)NCCCO (stereo unspecified) [PANTHENOL]
Not Active: IC50 [1] | IC50 [2] | Ki [2] | IC50 [3] | Ki [3] | IC50 (Cannabinoid receptor 1) | IC50 [4] | IC50 (Vasopressin V1a receptor) | IC50 [5] | IC50 [6]
